Measured values published in patent US20250154121A1, “CYCLIC(ALKYL)(AMINO)ALKOXY-SUBSTITUTED ARYL-PYRONE COMPOUND AND USE THEREOF” (priority 2022, published 2025).
Several values for one entry are separate records, joined by “and”; a condition that tells them apart may be missing. Equal values may be shown once. Read-outs that look alike come from different tables or passages of the source.

How the values were obtained:
ACE2 receptor = ACE2 receptor (Homo sapiens, UniProt Q9BYF1); test: ACE2-293T/CMC cell membrane chromatography binding; settings: ACE2-293T/CMC column
ACE2 receptor, sequence (Q9BYF1 18-805): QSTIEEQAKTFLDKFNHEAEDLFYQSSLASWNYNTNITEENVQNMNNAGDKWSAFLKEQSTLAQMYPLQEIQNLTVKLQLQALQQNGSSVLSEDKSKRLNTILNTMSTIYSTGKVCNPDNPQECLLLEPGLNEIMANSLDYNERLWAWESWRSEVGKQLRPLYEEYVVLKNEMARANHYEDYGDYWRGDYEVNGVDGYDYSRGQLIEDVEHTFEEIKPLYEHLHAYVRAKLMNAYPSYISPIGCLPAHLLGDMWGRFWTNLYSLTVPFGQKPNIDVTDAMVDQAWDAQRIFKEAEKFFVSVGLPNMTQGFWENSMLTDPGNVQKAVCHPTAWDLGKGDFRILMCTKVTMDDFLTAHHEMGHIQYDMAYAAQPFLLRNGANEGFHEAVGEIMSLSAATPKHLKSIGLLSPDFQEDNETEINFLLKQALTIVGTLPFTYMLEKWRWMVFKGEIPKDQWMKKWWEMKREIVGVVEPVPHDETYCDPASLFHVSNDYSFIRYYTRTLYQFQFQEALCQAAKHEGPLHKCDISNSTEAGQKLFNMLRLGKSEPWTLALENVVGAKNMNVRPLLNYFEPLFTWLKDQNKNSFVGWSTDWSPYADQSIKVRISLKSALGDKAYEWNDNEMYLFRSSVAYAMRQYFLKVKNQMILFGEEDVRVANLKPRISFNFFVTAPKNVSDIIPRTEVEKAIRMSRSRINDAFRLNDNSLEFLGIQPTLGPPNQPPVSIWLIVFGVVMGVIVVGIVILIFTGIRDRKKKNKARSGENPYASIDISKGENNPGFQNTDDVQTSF

[1] = system: Sendai strain of parainfluenza virus; assay type: in vivo
[2] = system: Human Coronavirus 229E (HCoV-229E); test: animal or person; assay type: in vivo
[3] = system: Influenza A (H1N1) virus FM1 strain; test: Mouse pneumonia model infected with influenza A (H1N1) virus FM1 strain (lung index); assay type: in vivo, ICR mice
Protocol: ICR mice were taken and randomly divided into: normal control group, model control group, ribavirin control group, compound 4, compound F1, compound F2, and compound F3 according to their weight class, and each drug was given in two dosage groups (10 mice in each group). Except for the normal control group, mice were slightly anesthetized with ether and infected with 15 LD50 H1N1 influenza virus liquid FM1 strain by nasal drops (30 μl per animal). The administration was started on the day of infection at 0.2 ml/10 g by gavage each time once a day for 4 days, and the normal control and model control groups were gavaged with distilled water under the same conditions. The mice were weighed and dissected on Day 5, and the lung was weighed to calculate lung index and lung index inhibition. The results were statistically processed using t-test for comparison between groups.
(§1) ICR mice were taken and randomly divided by weight class: normal control group, model control group, oseltamivir control group, compound 4, compound F4, compound F5, compound 5, and compound 7 according to their weight class, and each drug was given in two dosage groups (10 mice in each group). Except for the normal control group, mice were slightly anesthetized with ether and infected with 15 LD50 H1N1 influenza virus liquid (FM1/PR8 strain) by nasal drops (30 μl per each animal). The administration was started on the day of infection at 0.2 ml/10 g by gavage each time once a day for 4 days, and the normal control and model control groups were gavaged with distilled water under the same conditions. The mice were weighed and dissected on Day 5, and lung was weighed to calculate lung index and lung index inhibition. The results were statistically processed using t-test for comparison between groups.
(§2) ICR mice were taken and randomly divided into 9 groups according to the body weight: a normal control group, model control group, oseltamivir control group, and two dosage groups of Compound 9, Compound 12 and Compound 2, 10 mice in each group. Except the normal control group, mice were slightly anesthetized with ether and infected with 15 LD50 H1N1/PR8 influenza virus liquid by nasal drops at 30 μl per mouse. The administration was started on the day of infection, at 0.2 ml/10 g each time by gavage once a day for 4 days, and the normal control and model control groups were gavaged with distilled water under the same conditions. The mice were weighed and dissected on Day 5, and lungs were weighed to calculate lung index and lung index inhibition. The results were statistically processed using t-test for comparison between groups.

human coronavirus OC43 = assay type: in vivo; settings: Table 6 (Example 17)
[4] = Acute toxicity test in mice (single gavage, 14-day observation); assay type: in vivo; settings: for mortality rate of animals: 14 days observation
Protocol: Seventy ICR mice, weighing 17-21 g, were randomly divided into 7 groups according to fasting body weight: a normal control group and 6 dose groups of 475, 633, 844, 1125, 1500 and 2000 mg of the test drug (compound 4)/kg, 10 mice in each group, 50/50 male and female. After fasting for about 15 h, each dosing group was administered once by gavage in a volume of 40 ml/kg, and the control group was gavaged with an equal volume of 0.5% sodium carboxymethylcellulose solution once/day, and the animals were observed continuously for 14 days after administration of the drug to observe the death of the animals.
Thirty ICR mice, weighing 17-21 g, were randomly divided into three groups according to their fasting body weight: a normal control group and 2000 mg and 4000 mg of test drug (Compound 12)/kg dose group, 10 mice in each group, 50/50 male and female. After fasting for about 15 h, each dosing group was given the drug once by gavage in a volume of 40 ml/kg, and the control group was given an equal volume of 0.5% sodium carboxymethylcellulose solution by gavage once/day, and the deaths of the animals were observed continuously for 14 days after the administration of the drug.

[5] = system: Influenza A (H1N1) virus PR8 strain; test: Mouse pneumonia model infected with influenza A (H1N1) virus PR8 strain (lung index); assay type: in vivo, ICR mice; settings: Table 3 (Example 14)
Protocol: as §1, §2

SARS-CoV-2 = test: Antiviral CPE assay against SARS-CoV-2 in VeroE6 cells; assay type: cell-based; settings: 100 TCID50, read-out: Inhibition rate (%) of viral CPE
[6] = Table 7 (Example 18), 3.75 mg/kg/d gavage for 4 days
[7] = Table 7 (Example 18), 7.5 mg/kg/d gavage for 4 days
[8] = Table 7 (Example 18), 15 mg/kg/d gavage for 4 days
[9] = Table 11 (Example 24), 7.5 mg/kg/d gavage for 4 days
[10] = Table 11 (Example 24), 15 mg/kg/d gavage for 4 days
[11] = dose groups of 1125 mg drug/kg and above
[12] = 7.5 mg/kg gavage once a day for 4 days

Structure (SMILES): O=c1c(-c2ccccc2)coc2cc(OCCNC3CC3)ccc12 [Compound 4]
- Kd (ACE2 receptor): 1070 nM
- inhibition rate % [1, 6]: 18.11%
- lung index [1, 6]: 0.73 ± 0.07 lung weight/100 g body weight
- inhibition rate % [1, 7]: 26.20%
- lung index [1, 7]: 0.72 ± 0.05 lung weight/100 g body weight
- inhibition rate % [1, 8]: 46.39%
- lung index [1, 8]: 0.70 ± 0.05 lung weight/100 g body weight
- inhibition rate % [1, 9]: 54.48%
- lung index [1, 9]: 0.77 ± 0.04 Lung weight * 100/body weight
- inhibition rate % [1, 10]: 45.45%
- lung index [1, 10]: 0.78 ± 0.04 Lung weight * 100/body weight
- inhibition in vivo at 40 mg/kg/day ([2]; Human coronavirus 229E, in Mus musculus, po, 96 h, Table 4 (Example 15), 40 mg/kg/d gavage for 4 days, read-out: inhibition rate (%)): 41.9%
- inhibition in vivo at 50 mg/kg/day ([2]; Human coronavirus 229E, in Mus musculus, po, 96 h, Table 4 (Example 15), 50 mg/kg/d gavage for 4 days, read-out: inhibition rate (%)): 41%
- inhibition in vivo at 7.5 mg/kg/day ([2]; Human coronavirus 229E, in Mus musculus, po, 96 h, Table 5 (Example 16), 7.5 mg/kg/d gavage for 4 days, read-out: inhibition rate (%)): 44.3%
- inhibition in vivo at 15 mg/kg/day ([2]; Human coronavirus 229E, in Mus musculus, po, 96 h, Table 5 (Example 16), 15 mg/kg/d gavage for 4 days, read-out: inhibition rate (%)): 76.5%
- inhibition in vivo at 30 mg/kg/day ([2]; Human coronavirus 229E, in Mus musculus, po, 96 h, Table 5 (Example 16), 30 mg/kg/d gavage for 4 days, read-out: inhibition rate (%)): 86.5%
- inhibition in vivo at 7.5 mg/kg/day ([2]; Human coronavirus 229E, in Mus musculus, po, 96 h, Table 10 (Example 23), 7.5 mg/kg/d gavage for 4 days, read-out: inhibition rate (%)): 50%
- lung index ([2]; Table 4 (Example 15), 40 mg/kg/d gavage for 4 days): 0.76 ± 0.02 g lung weight × 100/g body weight
- lung index ([2]; Table 4 (Example 15), 50 mg/kg/d gavage for 4 days): 0.76 ± 0.08 g lung weight × 100/g body weight
- lung index ([2]; Table 5 (Example 16), 7.5 mg/kg/d gavage for 4 days): 0.71 ± 0.11 g lung weight × 100/g body weight
- lung index ([2]; Table 5 (Example 16), 15 mg/kg/d gavage for 4 days): 0.67 ± 0.08 g lung weight × 100/g body weight
- lung index ([2]; Table 5 (Example 16), 30 mg/kg/d gavage for 4 days): 0.66 ± 0.05 g lung weight × 100/g body weight
- lung index ([2]; Table 10 (Example 23), 7.5 mg/kg/d gavage for 4 days): 0.81 ± 0.03 g lung weight × 100/g body weight
- inhibition in vivo at 25 mg/kg ([3]; Influenza A virus, H1N1, po, 96 h, Table 1 (Example 13), 25 mg/kg gavage once a day for 4 days, read-out: inhibition rate (%)): 23.7%
- inhibition in vivo at 50 mg/kg ([3]; Influenza A virus, H1N1, po, 96 h, Table 1 (Example 13), 50 mg/kg gavage once a day for 4 days, read-out: inhibition rate (%)): 39.3%
- inhibition in vivo at 20 mg/kg ([3]; Influenza A virus, H1N1, po, 96 h, Table 2 (Example 14), 20 mg/kg gavage once a day for 4 days, read-out: inhibition rate (%)): 15.1%
- inhibition in vivo at 40 mg/kg ([3]; Influenza A virus, H1N1, po, 96 h, Table 2 (Example 14), 40 mg/kg gavage once a day for 4 days, read-out: inhibition rate (%)): 54%
- lung index ([3]; Table 1 (Example 13), 25 mg/kg gavage once a day for 4 days): 1.09 ± 0.13
- lung index ([3]; Table 1 (Example 13), 50 mg/kg gavage once a day for 4 days): 1.01 ± 0.12
- lung index ([3]; Table 2 (Example 14), 20 mg/kg gavage once a day for 4 days): 1.04 ± 0.12
- lung index ([3]; Table 2 (Example 14), 40 mg/kg gavage once a day for 4 days): 0.89 ± 0.20
- inhibition rate % (human coronavirus OC43; 3.75 mg/kg/d gavage for 4 days): 33.28%
- lung index (human coronavirus OC43; 3.75 mg/kg/d gavage for 4 days): 0.81 ± 0.08 g lung weight × 100/g body weight
- inhibition rate % (human coronavirus OC43; 7.5 mg/kg/d gavage for 4 days): 32.42%
- lung index (human coronavirus OC43; 7.5 mg/kg/d gavage for 4 days): 0.82 ± 0.05 g lung weight × 100/g body weight
- inhibition rate % (human coronavirus OC43; 15 mg/kg/d gavage for 4 days): 47.43%
- lung index (human coronavirus OC43; 15 mg/kg/d gavage for 4 days): 0.79 ± 0.10 g lung weight × 100/g body weight
- mortality rate of animals ([4]; 475 mg/kg single gavage): 0%
- mortality rate of animals ([4]; 633 mg/kg single gavage): 0%
- mortality rate of animals ([4]; 844 mg/kg single gavage): 0%
- mortality rate of animals ([4]; 1125 mg/kg single gavage): 20%
- mortality rate of animals ([4]; 1500 mg/kg single gavage): 80%
- mortality rate of animals ([4]; 2000 mg/kg single gavage): 100%
- LD50 ([4]; Bliss method, single gavage, mice): 1299.054 mg of drug/kg
- maximum non-adverse effect dose ([4]; both, ICR, mouse, in vivo, 14 days): 475 mg of drug/kg
- peak of the deaths after the drug [4, 11]: 24 to 48 h
- time of animal deaths after the drug [4, 11]: ≤ 4 days
- maximum non-lethal dose ([4]; single gavage, mice): 844 mg of drug/kg
- inhibition rate % [5, 12]: 23.91%
- lung index [5, 12]: 0.98 ± 0.11
- lung index ([5]; 15 mg/kg gavage once a day for 4 days): 0.83 ± 0.10
- inhibition rate % ([5]; 15 mg/kg gavage once a day for 4 days, 15 mg/kg): 54.04% and 60.27%
- inhibition at 1.95 µg/mL (SARS-CoV-2; Severe acute respiratory syndrome coronavirus 2, Vero C1008, drug concentration 1.95 μg/mL): 6.67 ± 2.89%
- inhibition at 3.9 µg/mL (SARS-CoV-2; Severe acute respiratory syndrome coronavirus 2, Vero C1008, drug concentration 3.9 μg/mL): 25 ± 5%
- inhibition at 7.8 µg/mL (SARS-CoV-2; Severe acute respiratory syndrome coronavirus 2, Vero C1008, drug concentration 7.8 μg/mL): 76.7 ± 2.89%
- inhibition at 15.6 µg/mL (SARS-CoV-2; Severe acute respiratory syndrome coronavirus 2, Vero C1008, drug concentration 15.6 μg/mL): 90 ± 5%
